Assay results as given in US8324274B2, “Drug delivery system for administration of a water soluble, cationic and amphiphilic pharmaceutically active substance” (Ardenia Invesments, Ltd., priority 2007, dated 2012).
Structures can show the parent of a compound that is named as a salt. Where two headings read alike, the source gives them in different places.

Columns and labels:
[1] = tested on: Human Ovary Adenocarcinoma SKOV-3 Cell Line; assay: Cytotoxicity (cell growth inhibition, trypan blue exclusion count) in SKOV-3 cultures; settings: for docetaxel-doxorubicin mixtures based on the sum of amounts of cytostatica
Protocol: MDA-MB-231 cells were propagated in MEM culture medium with 2 mM L-glutamine, 10% fetal bovine serum (FBS) and antibiotics. SKOV-3 cells were cultured in McCoy's 5A culture medium, supplemented with 1.5 mM L-glutamine, 10% FBS and antibiotics. […] Cell propagation of all lines was carried out in BD Falcon™ 25 or 75 cm^2 cultivation flasks (Becton Dickinson Labware). A549 cells were cultured in Ham's F-12 culture medium with 1 mM L-glutamine, 10% FBS and antibiotics. Cell propagation of all lines was carried out in BD Falcon™ 25 or 75 cm^2 cultivation flasks.
These plates were seeded by cells at 8×10^3 cells/well for MDA-MB-231, at 10×10^3 cells/well for SKOV-3 or at 6×10^3 cells/well for A549 in a volume of 200 μl/well. Both flasks and cultivation plates were incubated for cell growth at 37° C. in a humidified atmosphere of 95% air and 5% CO2.
On day 1 after cell seeding 4 μL solutions of the formulations to be tested with different concentrations in appropriate solvents were added to wells with cultures (dose—response experiments). […] The cells were incubated within 2-4 consecutive days.
EF was calculated versus ADRIAMYCIN®. IC50 for the docetaxel-doxorubicin mixtures is based on the sum of amounts of cytostatica.
(§1) IC50 were based on concentration of doxorubicin. Enhancement factors were calculated versus doxorubicin.

[2] = tested on: Human Breast Adenocarcinoma MDA-MB-231 Cell Line; assay: cells
Protocol: (§2) For evaluation of cytotoxicity in vitro cells of different human tumour cell lines were purchased from American Type Culture Collection (Rockville, Md., USA): Human Breast Adenocarcinoma Cell Line MDA-MB-231 (ATCC-HTB-26, Lot 3576799), Human Ovary Adenocarcinoma Cell Line SKOV-3 (ATCC-HTB-77, Lot 3038337) and Human Lung Non-Small Cancer Cell Line A549 (ATCC-CCL-185, Lot 3244171). MDA-MB-231 cells were propagated in MEM culture medium with 2 mM L-glutamine, 10% fetal bovine serum (FBS) and antibiotics. SKOV-3 cells were cultured in McCoy's 5A culture medium, supplemented with 1.5 mM L-glutamine, 10% FBS and antibiotics. All media and supplements were purchased from Sigma-Aldrich Co. (St. Louis, Mi., USA). […]
(§3) The cell cultures in the cultivation plates were allowed to adhere for 24 hour of incubation. […] At the end of the incubation period adherent cells were detached by trypsinization and the number of viable cells was counted using trypan blue exclusion test and a hemocytometer. […] The results were expressed as mean cell number±SE and the differences between control and test series evaluated by means of Student's t-test. The drug cytotoxicity was evaluated based on the extent of cell growth inhibition.
as §1

[3] = tested on: Human Lung Non-Small Cancer Cell Line A549; assay: Cytotoxicity (cell growth inhibition, trypan blue exclusion count) in A549 cultures; settings: based on concentration of doxorubicin
Protocol: as §2, §3, §1

[4] = SK-OV-3, 72 h, SKOV-3, day 3, mean ± SE, read-out: IC50 day 3
[5] = SK-OV-3, 96 h, SKOV-3, day 4, mean ± SE, read-out: IC50 day 4

SMILES	IC50 [1, 4] [nM]	IC50 [1, 5] [nM]	IC50 ([2]; MDA-MB-231, 72 h, read-out: IC50 day 3) [nM]	IC50 ([2]; MDA-MB-231, 96 h, read-out: IC50 day 4) [nM]	IC50 ([3]; 72 h, A549, day 3, mean ± SE, read-out: IC50 day 3) [nM]	IC50 ([3]; 96 h, A549, day 4, mean ± SE, read-out: IC50 day 4) [nM]
COc1cccc2c1C(=O)c1c(O)c3c(c(O)c1C2=O)C[C@@](O)(C(=O)CO)C[C@@H]3O[C@H]1C[C@H](N)[C@H](O)[C@H](C)O1 [ADRIAMYCIN ®, doxorubicin hydrochloride]	85	48	190	51	12	27
CC(=O)O[C@@]12CO[C@@H]1C[C@H](O)[C@@]1(C)C(=O)[C@H](O)C3=C(C)[C@@H](OC(=O)[C@H](O)[C@@H](NC(=O)OC(C)(C)C)c4ccccc4)C[C@@](O)([C@@H](OC(=O)c4ccccc4)[C@H]21)C3(C)C [Docetaxel, docetaxel]	90.7	28.5				
